In experiment [1] the test system is A-431. Nature of the experiment: Antiproliferative activity against human A-431 cells overexpressing EGFR assessed as cell survival at 10 uM relative to control. Type of experiment: functional. The following applies: read-out: Survival.
The target of experiment [2] is T1, Epidermal growth factor receptor (Homo sapiens, UniProt P00533). Nature of the experiment: Inhibition of EGFR tyrosine kinase (unknown origin) preincubated for 5 mins followed by substrate addition and further incubated for 10 mins in presence of ATP by fluorescence based microplate reader analysis.
T1 sequence (P00533 whole entry): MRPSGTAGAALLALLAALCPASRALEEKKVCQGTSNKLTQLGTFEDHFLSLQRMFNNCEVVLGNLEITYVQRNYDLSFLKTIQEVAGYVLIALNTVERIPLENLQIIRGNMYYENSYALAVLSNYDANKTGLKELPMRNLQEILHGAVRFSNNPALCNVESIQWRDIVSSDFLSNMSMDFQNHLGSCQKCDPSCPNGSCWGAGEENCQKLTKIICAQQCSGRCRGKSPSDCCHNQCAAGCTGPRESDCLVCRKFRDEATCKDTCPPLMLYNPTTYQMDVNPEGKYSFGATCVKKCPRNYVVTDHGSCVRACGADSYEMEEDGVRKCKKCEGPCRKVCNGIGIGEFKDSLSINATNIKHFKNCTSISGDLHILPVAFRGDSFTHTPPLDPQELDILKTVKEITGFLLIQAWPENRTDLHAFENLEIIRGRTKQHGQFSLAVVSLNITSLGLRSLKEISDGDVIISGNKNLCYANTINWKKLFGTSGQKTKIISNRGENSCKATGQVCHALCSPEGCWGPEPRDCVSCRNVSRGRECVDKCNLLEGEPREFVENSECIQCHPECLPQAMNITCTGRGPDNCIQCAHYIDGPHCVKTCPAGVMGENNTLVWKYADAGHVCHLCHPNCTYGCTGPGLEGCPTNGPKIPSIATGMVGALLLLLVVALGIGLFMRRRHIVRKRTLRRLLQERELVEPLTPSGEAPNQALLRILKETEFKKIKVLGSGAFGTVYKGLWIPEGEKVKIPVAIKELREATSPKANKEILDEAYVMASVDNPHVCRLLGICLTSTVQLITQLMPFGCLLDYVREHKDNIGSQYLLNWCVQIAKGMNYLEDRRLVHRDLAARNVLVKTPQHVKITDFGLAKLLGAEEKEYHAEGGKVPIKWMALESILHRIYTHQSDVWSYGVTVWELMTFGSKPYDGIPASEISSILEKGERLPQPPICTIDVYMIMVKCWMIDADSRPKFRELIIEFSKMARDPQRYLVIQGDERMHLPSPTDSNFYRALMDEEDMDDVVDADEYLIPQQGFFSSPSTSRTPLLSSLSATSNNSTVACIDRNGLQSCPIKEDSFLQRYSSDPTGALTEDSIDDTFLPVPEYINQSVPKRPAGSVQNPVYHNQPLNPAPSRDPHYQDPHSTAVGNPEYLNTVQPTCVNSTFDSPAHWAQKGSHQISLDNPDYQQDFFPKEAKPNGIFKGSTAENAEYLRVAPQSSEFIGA
The test system of experiment [3] is A-431. The experiment is described as follows: Antiproliferative activity against human A-431 cells overexpressing EGFR assessed as cell growth inhibition by MTT assay. Type of experiment: functional, cell-based.
In the next experiment the test system is HeLa. Nature of the experiment: Antiproliferative activity against human HeLa cells assessed as cell growth inhibition by MTT assay. It counts as functional, cell-based.
Experiment [4] addresses T1, Epidermal growth factor receptor. Nature of the experiment: Inhibition of EGFR tyrosine kinase (unknown origin).

Turning to `Cc1c2cc(O)c(=O)cc-2oc2cc(O)c(O)cc12`, the viability at 10 µM in the experiment with A-431 [1] came out at 57%.
With `O=c1c2cccc(O)c2oc2cccc(O)c12`, the IC50 in experiment [2] was found to be 0.9 µM.
For `COC1=CC(=C(c2ccc(O)c(OC)c2)c2ccc(O)c(OC)c2)C=CC1=O`, the viability at 10 µM in the experiment with A-431 [1] was determined as 57%.
Take `COc1cccc2c1C(=O)C1=C(C2=O)c2c(O)cc(CO)cc2[C@@H](O)[C@@H]1O`: in the experiment with A-431 [1], the viability at 10 µM is below 6%. Also, the IC50 with A-431 [3] stood at 6.04 µM; with HeLa it was 1.74 µM; in experiment [4] it was 0.00654 µM.
On to `CCc1ccc(C2=C(O)C(=O)C(c3ccc(CC)cc3)=C(O)C2=O)cc1`, for which the viability at 10 µM in the experiment with A-431 [1] is 17%. Further, the IC50 stood at 17.7 µM with A-431 [3], 17.3 µM in the experiment with HeLa and 0.0302 µM in experiment [4].
As to `COc1ccc(-c2cc(=O)cc(-c3ccc(OC)cc3)o2)cc1`, in the experiment on A-431 [1], the viability at 10 µM is below 6%. The IC50 in the experiment on A-431 [3] stood at 3.81 µM; with HeLa, 8.12 µM; in experiment [4], 0.00015 µM.
Turning to `O=c1c2ccccc2oc2cc([C@H](O)c3ccccc3)ccc12`, in the experiment with A-431 [1], the viability at 10 µM worked out at 57%.
As for `O=C1c2ccccc2C(=O)c2c(O)c3c(c(O)c21)CCCC3`, the viability at 10 µM in the experiment with A-431 [1] came to 57%.
As to `C=CC(C)(C)c1c2c(c(O)c3c(=O)c4ccc(O)c(O)c4oc13)C=CC(C)(C)O2` [MACLURAXANTHONE], the viability at 10 µM with A-431 [1] came to 49%. The IC50 stood at 2.84 µM with A-431 [3] and 0.95 µM in the experiment with HeLa.
Regarding `COc1c(O)cc2oc3cc(O)c(CC=C(C)C)c(O)c3c(=O)c2c1CC=C(C)C` [MANGOSTIN], in the experiment on A-431 [1], the viability at 10 µM was below 6%. In addition, the figures for the IC50 with A-431 [3] and with HeLa were 7.2 µM and 12 µM, respectively.

These data come from ChEMBL document CHEMBL5131428, “Discovery of potent antiproliferative agents from selected oxygen heterocycles as EGFR tyrosine kinase inhibitors from the U.S. National Cancer Institute database by in silico screening and bioactivity evaluation” (Bioorg Med Chem Lett, 2022).
